We go through 13 compounds from US9051345B2, “Metalloinsertor complexes targeted to DNA mismatches” (CALIFORNIA INSTITUTE OF TECHNOLOGY, priority 2011, dated 2015).

Data set [1] deals with HCT116O cells. The data set is described as follows: MTT cytotoxicity assay. It counts as cell-based, human. The conditions noted are these: for effect of PARP inhibitor on the selective MMR-dependent effects of the rhodium compound: with 20 μM [Rh(HDPA)2chrysi]^3+, HCT116N versus HCT116O. On the procedure: Cytotoxicity assays were performed as described in Mosmann, 1983, J. Immunol. Methods, 65, 55-63, the entire contents of which is incorporated herein by reference. HCT116N and HCT116O cells were plated in 96-well plates at 50,000 cells/well and incubated with rhodium for the durations specified. After incubation with the indicated rhodium complexes, cells were labeled with MTT for 4 hours at 37° C. under 5% CO2 and humidified atmosphere. The resulting formazan crystals were dissolved with solubilizing reagent purchased from Roche according to the manufacturer's instructions. The dissolved formazan was quantified as the absorbance at 570 nm minus the background absorbance at 690 nm. Percent viability was determined as the ratio of the amount of formazan in the treated cells to that of the untreated cells.
In order to elucidate the mechanism of action for the cytotoxicity caused by a metalloinsertor complex of Formula I, the MTT cytotoxicity assay was repeated in the absence and presence of the pan-caspase inhibitor Z-VAD-FMK. This inhibitor works by irreversibly binding to the active site of caspases which participate in the apoptotic pathway. […] The HCT116N and HCT116O cell lines were treated with 0-30 μM of the [Rh(HDPA)2chrysi]^3+ complex for 24-72 hours. […]
In order to determine the mechanism of action for cytotoxicity caused by a metalloinsertor complex of Formula I, the MTT cytotoxicity assay was repeated in conjunction with a panel of poly-ADP ribose polymerase (PARP) inhibitors: DPQ, 3-AB, 4-AN, and ABT-888, as described in Costantino et al., 2001, J. Med. Chem., 44, 3786-3794; Purnell et al., 1980, Biochem. J. 185, 775-777; Banasik et al., 1992, J. Biol. Chem. 267, 1569-1575; and Donawho et al., 2007, Clin. Cancer Res., 13, 2728-2737, the entire contents of all of which are incorporated herein by reference. The HCT116N and HCT116O cell lines were treated with 0 or 20 μM of the [Rh(HDPA)2chrysi]^3+ complex for 72 hours, with or without one of the four inhibitors. The inhibitor 3,4-Dihydro-5[4-(1-piperindinyl)butoxy]-1(2H)-isoquinoline (DPQ) was added to a final concentration of 0, 25, or 50 μM; the inhibitor 3-aminobenzamide (3-AB) was added to a final concentration of 0, 2, or 3 mM; the inhibitor 4-amino-1,8-napthalimide (4-AN) was added to a final concentration of 0, 10, or 20 μM; and the inhibitor 2-((R)-2-Methylpyrrolidin-2-yl)-1H-benzimidazole-4-carboxamide (ABT-888) was added to a final concentration of 0, 5, or 10 μM. […] For example, in the case of the compound DPQ, this difference was 43±2.7% without inhibitor and 0.6±3.0% with inhibitor.
On the technique in general: Formazan colour is commonly taken as a measure of viable cells.

Data set [2] relates to HCT116O cells. The conditions noted are these: HCT116N and HCT116O; called known; cited from earlier work.
Data set [3] concerns HCT116O cells. Nature of the data set: ICP-MS assay, nuclear and mitochondrial rhodium accumulation. The data set is classed as cell-based, human. The conditions noted are these: 10 uM, 24 h, comparison in words. The method, then: To assay the subcellular localization of the rhodium complexes, an inductively coupled plasma mass spectrometry (ICP-MS) assay was used to quantify the uptake of the complexes in both whole cell extracts and nuclear and mitochondrial fractions.
Mitochondrial Rhodium Accumulation. With reference to FIG. 31B, HCT116O cells were plated in 75 cm^2 culture flasks at 2.0×10^7 cells/plate and incubated at 37° C., 5% CO2 for 24 h. Rhodium was added to 10 uM and cells were grown for an additional 24 h. The cells were then harvested by trypsinization and centrifuged for 5 min at 1,200 rpm. The supernatants were decanted, and the cell pellets were resuspended in 1 ml cold PBS (pH 7.2). The cells were centrifuged again for 5 min at 1,200 rpm. The supernatants were discarded, and the resultant pellets were resuspended in 0.5 ml mitochondrial extraction buffer (200 mM mannitol, 68 mM sucrose, 50 mM Pipes, 50 mM KCl, 5 mM EGTA, 2 mM MgCl2; 1 mM DTT and protease inhibitors were added right before use). The samples were incubated on ice for 20 min, and the suspensions were homogenized via passage through a needle and syringe (35×). The homogenized cells were then centrifuged for 5 min at 750 rpm. The supernatants were collected and spun again at 14,000 g for 10 min. The supernatants were decanted, and the resulting mitochondrial pellet was suspended in 0.8 ml H2O via probe sonication. […]

Peptide text beside a SMILES is read from it. * marks the point of attachment. Cbz = O=C(OCc1ccccc1)*; CH2F = FC* Where only a bound is given, the exact number is not on record here.

Take “[Rh(chrysi)(phen)(DPE)]Cl3 [[Rh(chrysi)(phen)(DPE)]^2+]”: the “selective cytotoxicity, MMR-deficient HCT116O versus MMR-proficient HCT116N cells” value (from here on “selective cytotoxicity”) in data set [1] is on record as “selective cytotoxicities towards the MMR-deficient HCT116O cells”.
`NC(=O)c1cccc(N)c1` [3-AB, 3-aminobenzamide, reference compound]: the “effect of PARP inhibitor on the selective MMR-dependent effects of the rhodium compound” value in data set [1] (MTT, 72 hours) was “completely abolished the selective MMR-dependent effects”.
`COC(=O)C[C@H](NC(=O)[C@H](C)NC(=O)[C@@H](NC(=O)OCc1ccccc1)C(C)C)C(=O)CF` [Z-VAD-FMK, reference compound] (Cbz-Val-Ala-Asp(OMe)-CH2F): the “protection from rhodium by the caspase inhibitor at 20 M (so in the source)” value in data set [1] (MTT, HCT116N and HCT116O, with [Rh(HDPA)2chrysi]^3+) is given as “no protection from rhodium”. Also, in data set [1] (MTT, HCT116O, with [Rh(HDPA)2chrysi]^3+), the “protection from rhodium by the caspase inhibitor at 40 μM” value is given as “some protection from rhodium”.
Consider `O=C1NCCc2c(OCCCCN3CCCCC3)cccc21` [DPQ, 3,4-Dihydro-5[4-(1-piperindinyl)butoxy]-1(2H)-isoquinoline, reference compound], for which the “effect of PARP inhibitor on the selective MMR-dependent effects of the rhodium compound” value in data set [1] (MTT, 72 hours) is listed as “completely abolished the selective MMR-dependent effects”.
In the case of [Rh(bpy)2chrysi]^3+, the “cytotoxicity (known property)” value in data set [2] is recorded as “non-toxic”.
[Rh(NH3)4phzi]Cl3 [[Rh(NH3)4phzi]^3+]: in data set [1], the “selective cytotoxicity” value is reported as “selective cytotoxicities towards the MMR-deficient HCT116O cells”.
On to `Nc1ccc2c3c(cccc13)C(=O)NC2=O` [4-AN, 4-amino-1,8-napthalimide, reference compound], for which the “effect of PARP inhibitor on the selective MMR-dependent effects of the rhodium compound” value in data set [1] (MTT, 72 hours) is on record as “completely abolished the selective MMR-dependent effects”.
In the case of [Rh(PrDPA)2chrysi]^3+, the “selectivity of inhibitory effects after 72 hours” value in data set [1] (MTT, HCT116N and HCT116O, 72 hours) is listed as “non-selective inhibitory effects”. For the same compound, the mitochondrial rhodium content result in data set [3] is “greater than that of cells incubated with [Rh(DPAE)2(chrysi)]^3+”.
Consider [Rh(chrysi)(phen)(PPE)]^2+, for which the “selective cytotoxicity” value in data set [1] was “selective cytotoxicities towards the MMR-deficient HCT116O cells”.
`C[C@]1(c2nc3c(C(N)=O)cccc3[nH]2)CCCN1` [ABT-888, 2-((R)-2-Methylpyrrolidin-2-yl)-1H-benzimidazole-4-carboxamide, reference compound]: in data set [1] (MTT, 72 hours), the “effect of PARP inhibitor on the selective MMR-dependent effects of the rhodium compound” value was “completely abolished the selective MMR-dependent effects”.
For [Rh(chrysi)(phen)(PyPrO)]^2+, the “selective cytotoxicity” value in data set [1] is “selective cytotoxicities towards the MMR-deficient HCT116O cells”.
For [Rh(DPAE)2chrysi]^3+, the “selective cytotoxicity” value in data set [1] was “increased cytotoxicity to the MMR-deficient HCT116O cells”. Besides, the “incubation time at which cell selective activity is exhibited” value in data set [1] (HCT116O versus HCT116N) was ≤ 6 h. Also, the “share of cellular rhodium complex that is nuclear” value in data set [3] was “greater percentage”.
Take “[Rh(MeDPA)2chrysi]Cl3 [[Rh(MeDPA)2chrysi]^3+]”: the “selective cytotoxicity” value in data set [1] is “differential toxicity against the HCT116O cell line comparable to that of [Rh(HDPA)2chrysi]^3+”. Besides, in data set [1] (MTT, 48 hours), the “toxicity in MMR-deficient HCT116O versus HCT116N cells at 48 hours” value is “enhance toxicity in the MMR-deficient HCT116O cells”.
